From patent US20240300945A1, “CLY SERIES COMPOUND, PREPARATION METHOD THEREFOR AND USE THEREOF IN PREPARATION OF DRUGS” (NANJING WELLBEST PHARMACEUTICAL CO., LTD, priority 2021, published 2024)
Marks after values point to notes of the source that are not given here.

How the values were obtained:
mouse eczema model = experiment: Mouse eczema model: ear thickness; assay type: in vivo, C57BL/6 mice; conditions: after modeling, 14th day; 0.1% cream for external use twice a day, 10 days (positive: aloxone)
From the text: Preparation method of CLY cream: the matrix components included methyl silicone oil (15%), stearic acid (6%), white vaseline (5%), liquid paraffin (5%), octadecanol (5%), glycerin (20%), alkyl aryl polyglycol ether (1%), fatty alcohol polyoxyethylene ether (1%), Tween-807 (1%), ethyl paraben (0.1%), distilled water (about 31-55%), and it was mixed with an appropriate amount of CLY series compound liquid to form a mixed emulsion. The cream matrix used in this embodiment refers to the matrix components after the active ingredients were removed from the cream.
SPF grade female C57BL/6 mice were purchased at the age of 8 weeks (0.02 kg), 6 in each group, and randomly divided into the blank control group, model group, positive drug group, CLY-1 treatment group (0.1% CLY-1 cream for external use), CLY-2 treatment group (0.1% CLY-2 cream for external use), CLY-3 treatment group (0.1% CLY-3 cream for external use), CLY-4 treatment group (0.1% CLY-4 cream for external use), CLY-8 treatment group (0.1% CLY-8 cream for external use), CLY-11 treatment group (0.1% CLY-11 cream for external use) CLY-19 treatment group (0.1% CLY-19 cream for external use), CLY-36 treatment group (0.1% CLY-36 cream for external use) and CLY-39 treatment group (0.1% CLY-39 cream for external use).
Model establishment: the normal control group mice were smeared with 75% ethanol 14.3 ul on both ears, while the model group, positive drug group and treatment group were smeared with 1 nmol/L carpotriol liniment 14.3 ul on both ears at a regular time every day, and then smeared with 20 g/L OVA 25 ul after air drying, once a day, for 12 days to make a model.
From 4 days after the start of modeling, applied the cream matrix on the ear skin of mice in the blank control group and the model group, applied aloxone on the ear skin of mice in the positive drug group, and applied the treatment cream on the ear skin of mice in each treatment group respectively, twice a day in the morning and evening, for 10 consecutive days, took photos every day, and recorded scores.
The thickness of mouse auricle was measured and recorded with ear thickness measuring instrument before and on the 14th day respectively. After the measurement on the 14th day, the mice were sacrificed. Blood was taken and serum was separated.

rat hair loss model = experiment: Rat hair loss (androgenic alopecia) model: hair length; assay type: in vivo, Wistar rats; conditions: for 15-day hair length / 30-day hair length / 45-day hair length / 60-day hair length: rat AGA model; for adverse reactions: rat hair loss model, external use and system application, 60 days
From the text: (1) Compound CLY-1, CLY-2, CLY-3, CLY-4, CLY-5, CLY-8, CLY-11, CLY-19, CLY-36, CLY-39 tincture preparation method: 75% ethanol was mixed with appropriate amount of above compounds to prepare a tincture of different concentrations.
(2) Positive treatment drug: 5% minoxidil tincture (trade name: Mandi, Zhejiang Wanma Pharmaceutical Co., Ltd.).
Wistar rats were, according to weights, randomly divided into the negative control group (75% ethanol for external use), model group (75% ethanol for external use), positive control group (external 5% minoxidil tincture), CLY-1 external treatment group (external 5% CLY-1 tincture), CLY-2 external treatment group (external 5% CLY-2 tincture), CLY-3 external treatment group (external 5% CLY-3 tincture), CLY-4 external treatment group (external 5% CLY-4 tincture), and CLY-5 external treatment group (external 5% CLY-5 tincture) according to their body weight CLY-8 external treatment group (external 5% CLY-8 tincture), CLY-11 external treatment group (external 5% CLY-11 tincture), CLY-19 external treatment group (external 5% CLY-19 tincture), CLY-36 external treatment group (external 5% CLY-36 tincture), CLY-39 external treatment group (external 5% CLY-39 tincture), CLY-1 intravenous injection group (2 mg/kg·d), CLY-3 intravenous injection group (2 mg/kg·d), CLY-4 intravenous injection group (2 mg/kg·d) CLY-5 intravenous injection group (2 mg/kg·d), CLY-8 intravenous injection group (2 mg/kg·d), CLY-11 intravenous injection group (2 mg/kg·d), CLY-19 intravenous injection group (2 mg/kg·d), CLY-36 intravenous injection group (2 mg/kg·d), and CLY-39 intravenous injection group (2 mg/kg·d), with 10 rats in each group. Before the experiment, an area of 4 cm×5 cm was selected on each rat on the back of the neck to remove hair as the observation area. In addition to the negative control group, rats were subcutaneously injected with testosterone propionate injection [5 ml/(kg·d)] once a day for 60 days to establish the androgenic alopecia (AGA) model. […] At the same time, the drug was applied to the observation area on the back of the rats in the corresponding drug group at the rate of 2 mL/(one time), twice a day, at an interval of 8 hours; Intravenous administration once a day. The negative control group and the model control group were smeared with 75% ethanol solution, 2 mL/(one rat per time), twice a day, for 60 days.
Took 10 hairs from the observation area on the back of each rat every 15 days after administration, and measured the hair length with a vernier caliper. After 60 days of administration, the skin of the experimental observation area was taken for routine tissue dehydration, paraffin embedding, HE staining, and light microscopy to observe the histopathological changes of the rat skin hair follicles and sebaceous glands. Semi-quantitative analysis was performed for each group. The grading criteria are as follows: the normal structure of dermal tissue cells, subcutaneous hair follicles, and sebaceous glands is marked as […]: no hyperplasia of dermal tissue is found, the lesions of hair follicles and sebaceous glands are limited, and no inflammation is found under the skin is marked as “+”: no obvious hyperplasia of dermal tissue is found, and the follicles are obviously cystic. No obvious hyperplasia of sebaceous glands is found, and no inflammation is found under the skin is marked as “+”: the dermal tissue has segmental hyperplasia, which is not obvious, A small number of hair follicles have cystic changes, and the sebaceous glands have mild hyperplasia and hypertrophy. There is no obvious inflammation under the skin, which is marked as “++”: the dermal tissue cells of the skin have different degrees of segmental hyperplasia, and some hair follicles have cystic changes, showing uneven size of hair follicles, and no cells around. The sebaceous glands have hyperplasia, and the nuclei in the proliferative glands are few. […]

[1] = external 5% tincture twice a day
[2] = intravenous injection 2 mg/kg·d

Row | SMILES | Ear thickness (mouse eczema model) [mm] | 15-day hair length (rat hair loss model; [1]) | 30-day hair length (rat hair loss model; [1]) | 45-day hair length (rat hair loss model; [1]) | 60-day hair length (rat hair loss model; [1]) | 15-day hair length (rat hair loss model; [2]) | 30-day hair length (rat hair loss model; [2]) | 45-day hair length (rat hair loss model; [2]) | 60-day hair length (rat hair loss model; [2]) | adverse reactions (rat hair loss model)
1 | CN1CCC[C@@H](N(C(=O)c2ccc(-n3nnc4cccnc43)cc2)c2ncccc2Cl)C1 [CLY-1, (R)-4-(3H-[1,2,3]triazolo[4,5-b]pyridin-3-yl)-N-(3-chloropyridin-2-yl)-N-(1-methylpiperidin-3-yl)benzamide] | 0.251 | 8.3* mm | 9.3* mm | 14.2* mm | 17.6* mm | 8.7* mm | 9.6* mm | 14.6* mm | 17.9* mm | no obvious adverse reactions
2 | CCN1CCC[C@@H](N(C(=O)c2ccc(-n3nnc4cccnc43)cc2)c2ncccc2Cl)C1 [CLY-2, (R)-4-(3H-[1,2,3]triazolo[4,5-b]pyridin-3-yl)-N-(3-chloropyridin-2-yl)-N-(1-ethylpiperidin-3-yl)benzamide] | 0.246 | 9.1* mm | 10.1* mm | 15.3* mm | 18.9* mm | 9.2* mm | 10.3* mm | 15.6* mm | 19.1* mm | no obvious adverse reactions
3 | CNC1CCCC(N(C(=O)c2ccc(-n3nnc4cccnc43)cc2)c2ncccc2Cl)C1 (stereo not shown) [CLY-3] | 0.297 | 7.5* mm | 8.6* mm | 12.45* mm | 16.3* mm | 7.3* mm | 8.9* mm | 13.9* mm | 16.8* mm | no obvious adverse reactions
4 | O=C(c1ccc(-n2nnc3cccnc32)cc1)N(c1ncccc1Cl)C1CCCC(O)C1 (stereo not shown) [CLY-4] | 0.323 | 7.2* mm | 8.3* mm | 12.26* mm | 16.1* mm | 7.1* mm | 8.6* mm | 13.5* mm | 16.3* mm | no obvious adverse reactions
5 | COC1CCCC(N(C(=O)c2ccc(-n3nnc4cccnc43)cc2)c2ncccc2Cl)C1 (stereo not shown) [CLY-5] |  | 9.2* mm | 10.2* mm | 15.5* mm | 18.9* mm | 7.8* mm | 9.3* mm | 13.7* mm | 16.4* mm | no obvious adverse reactions
6 | O=C(c1ccc(-n2nnc3cccnc32)cc1)N(c1ncccc1Cl)[C@@H]1CCNC1 [CLY-8, (R)-4-(3H-[1,2,3]triazolo[4,5-b]pyridin-3-yl)-N-(3-chloropyridin-2-yl)-N-(pyrrolidin-3-yl)benzamide] | 0.245 | 9.3* mm | 10.3* mm | 15.7* mm | 19.2* mm | 7.3* mm | 9.5* mm | 13.8* mm | 17.8* mm | no obvious adverse reactions
7 | NC1CCCC(N(C(=O)c2ccc(-n3nnc4cccnc43)cc2)c2ncccc2Cl)C1 (stereo not shown) [CLY-11] | 0.278 | 8.2* mm | 9.1* mm | 13.89* mm | 17.4* mm | 8.6* mm | 9.3* mm | 14.7* mm | 17.6* mm | no obvious adverse reactions
8 | O=C(c1ccc(-c2ccccc2-c2nnn[nH]2)cc1)N(c1ncccc1Cl)[C@@H]1CCCNC1 [CLY-19] | 0.253 | 8.5* mm | 9.4* mm | 14.02* mm | 17.6* mm | 8.8* mm | 9.7* mm | 14.9* mm | 17.8* mm | no obvious adverse reactions
9 | O=C(c1ccc(-c2ccccc2Cl)cc1)N(c1ncccc1Cl)[C@@H]1CCCNC1 [CLY-36] | 0.248 | 8.1* mm | 8.7* mm | 13.81* mm | 17.1* mm | 8.6* mm | 9.2* mm | 14.2* mm | 17.3* mm | no obvious adverse reactions
10 | Nc1ccccc1-c1ccc(C(=O)N(c2ncccc2Cl)[C@@H]2CCCNC2)cc1 [CLY-39] | 0.246 | 9.1* mm | 9.3* mm | 14.8* mm | 18.2* mm | 9.3* mm | 9.9* mm | 14.9* mm | 18.1* mm | no obvious adverse reactions
11 | Nc1cc(N2CCCCC2)nc(N)[n+]1[O-] [Positive control group, minoxidil, reference compound] |  | 7.6* mm | 8.5* mm | 13.1* mm | 16.2* mm |  |  |  |  | 
